Results published in ChEMBL document CHEMBL1157614, “5-Cyclic amine-3-arylsulfonylindazoles as novel 5-HT6 receptor antagonists” (J Med Chem, 2010).
Converted amounts (≈) assume the structure as drawn. The source made the active and inactive calls. The calls are words filed in the database; no cut-off is given here.

Experiments:
[1] = molecular target: T1, 5-hydroxytryptamine receptor 2B (Homo sapiens, UniProt P41595); test: Antagonist activity at human 5HT2B receptor expressed in CHO cells assessed as intracellular cAMP formation by RIA; assay type: functional, cell-based
T1 sequence (P41595 whole entry): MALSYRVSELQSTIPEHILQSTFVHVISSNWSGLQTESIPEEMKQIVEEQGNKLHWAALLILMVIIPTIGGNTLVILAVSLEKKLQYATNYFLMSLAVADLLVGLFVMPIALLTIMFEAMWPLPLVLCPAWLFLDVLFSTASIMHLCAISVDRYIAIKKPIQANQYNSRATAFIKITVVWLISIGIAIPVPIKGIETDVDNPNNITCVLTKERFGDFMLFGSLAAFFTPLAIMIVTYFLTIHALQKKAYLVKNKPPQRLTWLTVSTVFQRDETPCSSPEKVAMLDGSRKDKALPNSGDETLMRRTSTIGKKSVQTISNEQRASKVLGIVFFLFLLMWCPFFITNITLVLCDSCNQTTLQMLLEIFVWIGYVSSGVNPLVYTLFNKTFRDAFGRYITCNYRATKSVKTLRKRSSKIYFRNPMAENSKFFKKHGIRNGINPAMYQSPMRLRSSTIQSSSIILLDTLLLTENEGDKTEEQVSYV

[2] = molecular target: T1, 5-hydroxytryptamine receptor 2B; test: Agonist activity at human 5HT2B receptor expressed in CHO cells assessed as intracellular cAMP formation by RIA; assay type: functional, cell-based
[3] = molecular target: T2, 5-hydroxytryptamine receptor 6 (Homo sapiens, UniProt P50406); test: Antagonist activity at human cloned 5HT6 receptor expressed in human HeLa cells assessed as intracellular cAMP formation by RIA; assay type: functional, cell-based
T2 sequence (P50406 whole entry): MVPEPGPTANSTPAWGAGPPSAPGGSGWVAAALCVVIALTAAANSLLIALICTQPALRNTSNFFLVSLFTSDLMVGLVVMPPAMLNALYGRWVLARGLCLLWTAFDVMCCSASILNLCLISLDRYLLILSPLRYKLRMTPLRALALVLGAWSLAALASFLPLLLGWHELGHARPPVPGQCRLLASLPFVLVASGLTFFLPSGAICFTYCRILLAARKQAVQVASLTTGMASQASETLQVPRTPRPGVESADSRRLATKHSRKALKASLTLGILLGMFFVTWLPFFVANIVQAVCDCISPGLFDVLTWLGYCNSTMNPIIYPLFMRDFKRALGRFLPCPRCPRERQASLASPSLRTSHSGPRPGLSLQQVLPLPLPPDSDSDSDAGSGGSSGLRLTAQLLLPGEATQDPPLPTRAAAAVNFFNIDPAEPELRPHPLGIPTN

[4] = molecular target: T2, 5-hydroxytryptamine receptor 6; test: Displacement of [3H]LSD from human 5HT6 receptor by scintillation counting
[5] = molecular target: T1, 5-hydroxytryptamine receptor 2B; test: Displacement of [3H]5HT from human 5HT2B receptor expressed in CHO cells by scintillation counting; assay type: cell-based
CYP2D6 = CYP2D6 (Homo sapiens, UniProt P10635); test: Inhibition of CYP2D6 at 3 uM; assay type: ADME
Sequence of CYP2D6 (P10635 whole entry): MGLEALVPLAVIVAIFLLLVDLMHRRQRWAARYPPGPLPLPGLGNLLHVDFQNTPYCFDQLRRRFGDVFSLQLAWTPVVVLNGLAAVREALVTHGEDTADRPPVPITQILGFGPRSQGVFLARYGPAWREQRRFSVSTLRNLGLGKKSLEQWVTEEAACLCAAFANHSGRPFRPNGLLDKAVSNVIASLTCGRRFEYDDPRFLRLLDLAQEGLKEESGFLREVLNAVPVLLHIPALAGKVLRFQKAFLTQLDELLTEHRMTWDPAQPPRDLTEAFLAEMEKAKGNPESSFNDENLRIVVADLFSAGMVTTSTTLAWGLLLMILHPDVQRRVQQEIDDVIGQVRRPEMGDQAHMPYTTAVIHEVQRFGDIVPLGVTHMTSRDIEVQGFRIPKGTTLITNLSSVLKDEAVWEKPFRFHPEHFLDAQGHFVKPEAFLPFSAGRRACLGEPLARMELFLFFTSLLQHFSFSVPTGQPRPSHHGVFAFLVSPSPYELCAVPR

[6] = Half life in rat microsomes; assay type: ADME, Microsome
Rattus norvegicus [7] = test: Permeability across blood brain barrier in Long-Evans rat at 10 mg/kg, ip administered as single dose; assay type: ADME, organism-based; parameters: dose 10 mg/kg, route intraperitoneal; conditions: in vivo
D(2) dopamine receptor = D(2) dopamine receptor (Homo sapiens, UniProt P14416); test: Binding affinity to dopamine D2 receptor
Sequence of D(2) dopamine receptor (P14416 whole entry): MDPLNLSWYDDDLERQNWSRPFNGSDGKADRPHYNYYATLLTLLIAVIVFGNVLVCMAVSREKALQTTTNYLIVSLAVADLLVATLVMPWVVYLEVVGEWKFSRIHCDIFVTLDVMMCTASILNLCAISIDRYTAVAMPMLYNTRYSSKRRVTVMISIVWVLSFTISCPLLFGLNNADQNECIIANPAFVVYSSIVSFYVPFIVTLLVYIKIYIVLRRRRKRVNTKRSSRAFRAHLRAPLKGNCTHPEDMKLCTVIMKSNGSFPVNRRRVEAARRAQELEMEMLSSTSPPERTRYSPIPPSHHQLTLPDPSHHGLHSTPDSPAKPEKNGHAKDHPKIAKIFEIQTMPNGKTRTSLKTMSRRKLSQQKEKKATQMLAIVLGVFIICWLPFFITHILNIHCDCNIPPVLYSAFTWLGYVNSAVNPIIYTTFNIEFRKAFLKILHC

[8] = molecular target: T3, 5-hydroxytryptamine receptor 1A (Homo sapiens, UniProt P08908); test: Binding affinity to 5HT1A receptor
T3 sequence (P08908 whole entry): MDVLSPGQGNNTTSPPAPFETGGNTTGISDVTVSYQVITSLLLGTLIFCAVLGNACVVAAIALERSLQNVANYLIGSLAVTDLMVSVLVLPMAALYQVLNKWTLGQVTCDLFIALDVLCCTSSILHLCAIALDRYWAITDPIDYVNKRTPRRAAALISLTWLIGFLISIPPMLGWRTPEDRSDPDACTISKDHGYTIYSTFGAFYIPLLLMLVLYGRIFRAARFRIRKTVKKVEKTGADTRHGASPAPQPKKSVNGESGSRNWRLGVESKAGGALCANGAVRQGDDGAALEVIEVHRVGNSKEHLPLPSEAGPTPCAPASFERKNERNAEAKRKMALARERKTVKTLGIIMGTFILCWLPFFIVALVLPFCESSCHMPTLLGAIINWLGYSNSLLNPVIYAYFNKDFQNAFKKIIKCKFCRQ

CYP3A4 = CYP3A4 (Homo sapiens, UniProt P08684); test: Inhibition of CYP3A4 at 3 uM; assay type: ADME
Sequence of CYP3A4 (P08684 whole entry): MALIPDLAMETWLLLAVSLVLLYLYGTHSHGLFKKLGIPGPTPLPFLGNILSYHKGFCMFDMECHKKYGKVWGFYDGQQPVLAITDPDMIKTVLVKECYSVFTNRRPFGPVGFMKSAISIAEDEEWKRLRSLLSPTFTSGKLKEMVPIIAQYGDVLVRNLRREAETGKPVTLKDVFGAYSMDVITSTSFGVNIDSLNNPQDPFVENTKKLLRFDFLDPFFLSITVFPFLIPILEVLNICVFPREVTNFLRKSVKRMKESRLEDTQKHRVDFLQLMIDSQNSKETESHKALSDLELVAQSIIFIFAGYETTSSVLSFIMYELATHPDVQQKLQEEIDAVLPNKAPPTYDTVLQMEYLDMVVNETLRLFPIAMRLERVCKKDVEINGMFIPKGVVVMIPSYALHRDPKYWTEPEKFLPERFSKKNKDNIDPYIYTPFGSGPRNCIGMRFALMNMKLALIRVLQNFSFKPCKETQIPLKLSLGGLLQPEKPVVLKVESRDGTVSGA

[9] = molecular target: 5-hydroxytryptamine receptor 1D (Homo sapiens, UniProt P28221); test: Binding affinity to 5HT1D receptor
Sequence of 5-hydroxytryptamine receptor 1D (P28221 whole entry): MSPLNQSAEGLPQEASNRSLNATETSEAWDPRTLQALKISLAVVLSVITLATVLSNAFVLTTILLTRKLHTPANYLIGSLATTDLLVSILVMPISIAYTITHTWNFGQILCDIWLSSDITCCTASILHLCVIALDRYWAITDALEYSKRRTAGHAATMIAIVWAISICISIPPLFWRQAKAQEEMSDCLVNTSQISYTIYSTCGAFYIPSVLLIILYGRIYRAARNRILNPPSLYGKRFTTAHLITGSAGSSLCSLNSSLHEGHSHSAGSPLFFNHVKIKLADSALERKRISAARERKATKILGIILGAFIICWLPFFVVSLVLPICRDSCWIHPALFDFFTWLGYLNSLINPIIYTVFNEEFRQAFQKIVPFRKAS

[10] = molecular target: T4, Alpha-2A adrenergic receptor (Homo sapiens, UniProt P08913); test: Binding affinity to alpha2A adrenergic receptor
T4 sequence (P08913 whole entry): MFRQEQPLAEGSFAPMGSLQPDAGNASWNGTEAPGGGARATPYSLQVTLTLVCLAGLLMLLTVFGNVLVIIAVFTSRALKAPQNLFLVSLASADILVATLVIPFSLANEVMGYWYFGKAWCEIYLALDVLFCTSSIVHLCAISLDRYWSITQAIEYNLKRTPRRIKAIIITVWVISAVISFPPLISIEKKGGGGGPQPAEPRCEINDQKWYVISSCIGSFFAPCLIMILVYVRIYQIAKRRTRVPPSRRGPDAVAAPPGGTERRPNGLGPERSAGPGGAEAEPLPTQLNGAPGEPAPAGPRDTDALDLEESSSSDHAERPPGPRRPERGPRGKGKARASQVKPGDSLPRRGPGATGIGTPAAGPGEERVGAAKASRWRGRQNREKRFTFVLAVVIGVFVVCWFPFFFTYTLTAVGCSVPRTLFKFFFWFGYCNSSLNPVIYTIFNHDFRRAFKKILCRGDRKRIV

[11] = Permeability at pH 7.4 by PAMPA; assay type: ADME; conditions: read-out: permeability
hERG (KCNH2) = hERG (KCNH2) (Homo sapiens, UniProt Q12809); test: Inhibition of human ERG at 10 uM
Sequence of hERG (KCNH2) (Q12809 whole entry): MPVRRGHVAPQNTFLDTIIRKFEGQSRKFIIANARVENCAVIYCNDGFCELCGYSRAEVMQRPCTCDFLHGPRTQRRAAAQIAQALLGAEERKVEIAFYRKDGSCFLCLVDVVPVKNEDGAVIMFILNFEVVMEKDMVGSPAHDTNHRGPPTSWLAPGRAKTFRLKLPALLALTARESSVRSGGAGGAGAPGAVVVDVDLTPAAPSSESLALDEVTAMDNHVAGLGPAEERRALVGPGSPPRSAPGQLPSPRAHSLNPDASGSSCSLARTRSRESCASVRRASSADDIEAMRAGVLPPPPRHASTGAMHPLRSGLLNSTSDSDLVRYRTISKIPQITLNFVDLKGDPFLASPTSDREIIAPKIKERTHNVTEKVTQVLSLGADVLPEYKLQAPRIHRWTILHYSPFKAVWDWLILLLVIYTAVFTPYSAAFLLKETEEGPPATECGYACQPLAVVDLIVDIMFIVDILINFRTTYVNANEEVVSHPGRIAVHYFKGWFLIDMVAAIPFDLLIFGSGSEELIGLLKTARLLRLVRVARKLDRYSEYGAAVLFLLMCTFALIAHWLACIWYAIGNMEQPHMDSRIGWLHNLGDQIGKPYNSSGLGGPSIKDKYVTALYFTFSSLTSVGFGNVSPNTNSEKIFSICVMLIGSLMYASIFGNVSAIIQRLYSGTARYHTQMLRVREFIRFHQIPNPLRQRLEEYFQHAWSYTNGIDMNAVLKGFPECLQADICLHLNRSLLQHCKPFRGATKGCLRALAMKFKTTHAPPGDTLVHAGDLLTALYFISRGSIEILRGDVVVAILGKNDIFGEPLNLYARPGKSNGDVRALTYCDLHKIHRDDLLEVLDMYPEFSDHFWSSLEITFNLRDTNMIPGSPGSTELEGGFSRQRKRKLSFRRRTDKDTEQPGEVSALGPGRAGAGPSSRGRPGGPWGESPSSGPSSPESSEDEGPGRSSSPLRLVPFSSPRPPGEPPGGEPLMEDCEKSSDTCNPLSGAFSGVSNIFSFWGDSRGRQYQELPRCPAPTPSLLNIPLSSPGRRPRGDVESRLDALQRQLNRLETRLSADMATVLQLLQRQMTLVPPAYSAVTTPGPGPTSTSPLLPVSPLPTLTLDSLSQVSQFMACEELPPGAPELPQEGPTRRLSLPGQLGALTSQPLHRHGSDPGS

[12] = Solubility at pH 7.4; assay type: physicochemical; conditions: buffer
[13] = molecular target: 5-hydroxytryptamine receptor 1B (Homo sapiens, UniProt P28222); test: Binding affinity to 5HT1B receptor
Sequence of 5-hydroxytryptamine receptor 1B (P28222 whole entry): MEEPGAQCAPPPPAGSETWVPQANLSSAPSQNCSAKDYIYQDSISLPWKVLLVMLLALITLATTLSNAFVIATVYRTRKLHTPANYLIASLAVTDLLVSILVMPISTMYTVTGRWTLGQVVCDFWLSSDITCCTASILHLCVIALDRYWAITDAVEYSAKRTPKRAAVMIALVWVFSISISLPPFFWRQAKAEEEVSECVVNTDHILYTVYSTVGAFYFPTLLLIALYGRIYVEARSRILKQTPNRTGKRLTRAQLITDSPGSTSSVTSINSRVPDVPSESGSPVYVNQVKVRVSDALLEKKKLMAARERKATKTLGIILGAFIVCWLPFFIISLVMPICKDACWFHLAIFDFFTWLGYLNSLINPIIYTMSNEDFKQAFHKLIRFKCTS

CYP2C9 = CYP2C9 (Homo sapiens, UniProt P11712); test: Inhibition of CYP2C9 at 3 uM; assay type: ADME
Sequence of CYP2C9 (P11712 whole entry): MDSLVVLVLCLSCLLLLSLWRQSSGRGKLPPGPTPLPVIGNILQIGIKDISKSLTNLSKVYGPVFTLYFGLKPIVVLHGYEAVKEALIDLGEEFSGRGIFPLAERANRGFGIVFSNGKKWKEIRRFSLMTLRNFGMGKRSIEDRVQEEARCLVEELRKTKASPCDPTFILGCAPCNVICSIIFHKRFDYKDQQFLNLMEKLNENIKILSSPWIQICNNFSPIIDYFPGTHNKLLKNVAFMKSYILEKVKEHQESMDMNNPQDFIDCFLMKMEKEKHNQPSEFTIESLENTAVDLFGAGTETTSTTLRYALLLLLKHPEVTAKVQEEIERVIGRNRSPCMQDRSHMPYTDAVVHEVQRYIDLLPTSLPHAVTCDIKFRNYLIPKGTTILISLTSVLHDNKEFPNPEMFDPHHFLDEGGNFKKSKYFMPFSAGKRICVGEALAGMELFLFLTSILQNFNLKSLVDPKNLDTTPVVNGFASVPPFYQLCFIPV

Rattus norvegicus [14] = test: Cognitive enhancing effect in Long-Evans rat assessed as improvement of recognition memory at 3 mg/kg, ip administered 1 hr prior to learning trial measured after 48 hrs during testing trial by novel object recognition test; assay type: functional, organism-based; parameters: dose 3 mg/kg

| Activity [1] | Activity [2] | IC50 [3] | Ki [4] | Ki [5] | Compound | also measured |
| --- | --- | --- | --- | --- | --- | --- |
| Active | inactive | 433 nM | 75.8 nM | 260 nM | CC(C)Cn1nc2ccc(N3CC[C@@H](N)C3)cc2c1S(=O)(=O)c1cccc2ccccc12 |  |
| Active | inactive | 51.7 nM | 13.1 nM | > 10000 nM | CC(C)c1ccc(S(=O)(=O)c2n[nH]c3ccc(N4CCC(N)CC4)cc23)cc1 |  |
| Active | inactive |  |  | 100 nM | NC1CCN(c2ccc3[nH]nc(S(=O)(=O)c4cccc5ccccc45)c3c2)CC1 |  |
| Active | inactive | 17.5 nM | 24.4 nM | 583 nM | CN(C)[C@H]1CCN(c2ccc3[nH]nc(S(=O)(=O)c4cccc5ccccc45)c3c2)C1 |  |
| Active | inactive | 380 nM | 48.7 nM | > 3300 nM | CC(C)n1nc2ccc(N3CC[C@@H](N)C3)cc2c1S(=O)(=O)c1cccc2ccccc12 |  |
| Active | inactive | 316 nM |  | 185 nM | Cn1nc(S(=O)(=O)c2cccc3ccccc23)c2cc(N3CC[C@@H](N)C3)ccc21 |  |
| Active | inactive |  |  | 274 nM | N[C@@H]1CCN(c2ccc3[nH]nc(S(=O)(=O)c4cccc5ccccc45)c3c2)C1 | inhibition at 3 µM (CYP2D6): 7%; half-life [6]: 20 min; pBBB (Rattus norvegicus [7]): 11 ×10⁻⁶ cm/s; Ki (D(2) dopamine receptor): 2910 nM; Ki [8]: 4730 nM; inhibition at 3 µM (CYP3A4): 88%; Ki [9]: 2270 nM; Ki [10]: > 10000 nM; Papp [11]: 0.19 ×10⁻⁶ cm/s; inhibition at 10 µM (hERG (KCNH2)): 14%; solubility [12]: 63 µg/mL (≈ 161 µM); Ki [13]: 6040 nM; inhibition at 3 µM (CYP2C9): 73% |
| Active | inactive | 33.7 nM |  | 442 nM | NC1CCN(c2ccc3[nH]nc(S(=O)(=O)c4cccc(Cl)c4)c3c2)CC1 |  |
| Active | inactive | 16.5 nM | 3.55 nM | 97.9 nM | NC1CN(c2ccc3[nH]nc(S(=O)(=O)c4cccc5ccccc45)c3c2)C1 |  |
| Active | inactive |  |  | 21 nM | N[C@H]1CCN(c2ccc3[nH]nc(S(=O)(=O)c4cccc5ccccc45)c3c2)C1 |  |
| Active | inactive | 39.6 nM | 0.51 nM | 423 nM | CN(C)[C@@H]1CCN(c2ccc3[nH]nc(S(=O)(=O)c4cccc5ccccc45)c3c2)C1 |  |
| Active | inactive | 444 nM | 54.3 nM | 455 nM | Cn1nc2ccc(N3CC[C@@H](N)C3)cc2c1S(=O)(=O)c1cccc2ccccc12 |  |
| Active | inactive | 70.1 nM | 4.52 nM | 78 nM | NC1CCN(c2ccc3[nH]nc(S(=O)(=O)c4cccc5c(Cl)cccc45)c3c2)CC1 |  |
| Active | inactive | 157 nM |  | 191 nM | CC(C)n1nc(S(=O)(=O)c2cccc3ccccc23)c2cc(N3CC[C@@H](N)C3)ccc21 | Activity (Rattus norvegicus [14]): Active |
| Active | inactive | 203 nM |  | > 3300 nM | CC(C)Cn1nc(S(=O)(=O)c2cccc3ccccc23)c2cc(N3CC[C@@H](N)C3)ccc21 |  |
| Active | inactive | 88.9 nM | 18.2 nM | 1360 nM | NC1CCN(c2ccc3[nH]nc(S(=O)(=O)c4ccc5ccccc5c4)c3c2)CC1 |  |

| Compound | Activity [1] | Activity [2] | IC50 [3] | Ki [4] | Ki [5] | also measured |
| --- | --- | --- | --- | --- | --- | --- |
| Cc1ccc(S(=O)(=O)c2n[nH]c3ccc(N4CCC(N)CC4)cc23)c2ccccc12 | Active | inactive | 26.7 nM | 3.62 nM | 493 nM |  |
